Results taken from the supplement of paper PMC10307832.

Assays:
Experiment in all cases: relative viability (nuclei count vs DMSO), 5 days (fraction); higher = more cells survive
[1] = compound: O=C(C[C@H]1NCCC[C@@H]1O)Cn1cnc2cc(Br)c(Cl)cc2c1=O (racemic) [Halofuginone] + CC1(C)CCC(c2ccc(Cl)cc2)=C(CN2CCN(c3ccc(C(=O)NS(=O)(=O)c4ccc(N[C@H](CCN5CCOCC5)CSc5ccccc5)c(S(=O)(=O)C(F)(F)F)c4)cc3)CC2)C1 [Navitoclax] (partner 0.5 µM)
How it was run: (§1)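 Each reported value is a median over duplicate plates. It expresses relative viability: treated-well nuclei count divided by vehicle-well nuclei count. Lung cancer cell lines in 1536-well plates were dosed by pin tool a day after seeding, alone with one drug or with a fixed anchor-drug dose plus five library-drug doses (not always all listed) in √10 steps, and nuclei were counted after 5 days.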

Decitabine + Luminespib = compound: Nc1ncn([C@H]2C[C@H](O)[C@@H](CO)O2)c(=O)n1 [Decitabine] + CCNC(=O)c1noc(-c2cc(C(C)C)c(O)cc2O)c1-c1ccc(CN2CCOCC2)cc1 [Luminespib] (partner 0.01 µM)
How it was run: as §1

Decitabine + Tozasertib = compound: Nc1ncn([C@H]2C[C@H](O)[C@@H](CO)O2)c(=O)n1 [Decitabine] + Cc1cc(Nc2cc(N3CCN(C)CC3)nc(Sc3ccc(NC(=O)C4CC4)cc3)n2)n[nH]1 [Tozasertib] (partner 0.1 µM)
How it was run: as §1

[2] = compound: O=C(C[C@H]1NCCC[C@@H]1O)Cn1cnc2cc(Br)c(Cl)cc2c1=O (racemic) [Halofuginone] + Cc1cc(Nc2cc(N3CCN(C)CC3)nc(Sc3ccc(NC(=O)C4CC4)cc3)n2)n[nH]1 [Tozasertib] (partner 0.1 µM)
How it was run: as §1

UMC-11
relative viability ([1]; first compound 0.001 µM): 0.325
relative viability ([1]; first compound 0.003162 µM): 0.314
relative viability ([1]; first compound 0.01 µM): 0.324
relative viability ([1]; first compound 0.03162 µM): 0.26
relative viability ([1]; first compound 0.1 µM): 0.138
relative viability (Decitabine + Luminespib; first compound 0.04 µM): 0.935
relative viability (Decitabine + Luminespib; first compound 0.1265 µM): 0.773
relative viability (Decitabine + Luminespib; first compound 0.4 µM): 0.559
relative viability (Decitabine + Luminespib; first compound 1.265 µM): 0.382
relative viability (Decitabine + Luminespib; first compound 4 µM): 0.372
relative viability (Decitabine + Tozasertib; first compound 0.04 µM): 0.202
relative viability (Decitabine + Tozasertib; first compound 0.1265 µM): 0.186
relative viability (Decitabine + Tozasertib; first compound 0.4 µM): 0.186
relative viability (Decitabine + Tozasertib; first compound 1.265 µM): 0.192
relative viability (Decitabine + Tozasertib; first compound 4 µM): 0.183
relative viability ([2]; first compound 0.001 µM): 0.219
relative viability ([2]; first compound 0.003162 µM): 0.196
relative viability ([2]; first compound 0.01 µM): 0.189
relative viability ([2]; first compound 0.03162 µM): 0.205
relative viability ([2]; first compound 0.1 µM): 0.209
